ChEMBL document CHEMBL6109081, “Discovery and optimization of phenazopyridine hydrochloride as novel SARS-CoV-2 RdRp inhibitors” (Eur J Med Chem, 2025)
Calls of active or inactive are those of the source. The calls are words filed in the database; no cut-off is given here.

Assays:
[1] = Cytotoxicity against HEK293T cells assessed as inhibition of cell growth measured after 48 hrs by CCK8 assay; format: toxicity, cell-based, HEK-293T; conditions: human
[2] = molecular target: Replicase polyprotein 1ab (Severe acute respiratory syndrome coronavirus 2) (UniProt P0DTD1); experiment: Inhibition of SARS-CoV-2 RdRp in HEK-293T cells at 10 uM measured after 24 hrs relative to control; format: cell-based
[3] = Antiviral activity against SARS-CoV-2 infected in HEK293T cells assessed as inhibition of SARS-CoV-2 RdRp in the presence of coelenterazine-h incubated for 24 hrs by Gaussia luciferase reporter assay; format: functional, cell-based; conditions: Homo sapiens, HEK-293T
[4] = molecular target: T1, Replicase polyprotein 1ab (Severe acute respiratory syndrome coronavirus 2, UniProt P0DTD1); experiment: Inhibition of his tagged SARS-CoV-2 nsp12 in HEK-293T cells cotransfected with pCoV-GLuc incubated for 24 hrs in the presence of coelenterazine-h by Gaussia luciferase reporter assay; format: cell-based
[5] = molecular target: Replicase polyprotein 1ab (Severe acute respiratory syndrome coronavirus 2) (UniProt P0DTD1); experiment: (§1) Inhibition of SARS-CoV-2 RdRp mediated RNA synthesis in HEK-293T cells cotransfected with pCoV-GLuc and pCMV6-nsp12/nsp7/nsp8 assessed as reduction in minus strand RNA level by measuring GLuc RNA level for 24 hrs in the presence of coelenterazine-h by Gaussia luciferase reporter assay; format: cell-based; conditions: dose 2-10 µM
[6] = molecular target: Replicase polyprotein 1ab (Severe acute respiratory syndrome coronavirus 2) (UniProt P0DTD1); experiment: (§2) Inhibition of SARS-CoV-2 RdRp mediated RNA synthesis in HEK-293T cells cotransfected with pCoV-GLuc and pCMV6-nsp12/nsp7/nsp8 assessed as reduction in plus strand RNA level by measuring GLuc RNA level for 24 hrs in the presence of coelenterazine-h by Gaussia luciferase reporter assay; format: cell-based; conditions: dose 2-10 µM
[7] = molecular target: T1, Replicase polyprotein 1ab; experiment: Inhibition of SARS-CoV-2 nsp14 in HEK-293T cells cotransfected with pCoV-GLuc incubated for 24 hrs in the presence of coelenterazine-h by Gaussia luciferase reporter assay; format: cell-based
[8] = Selectivity index, ratio of CC50 for cytotoxicity against HEK293T cells assessed as inhibition of cell growth to EC50 for antiviral activity against SARS-CoV-2 infected in HEK293T cells assessed as inhibition of SARS-CoV-2 RdRp; format: toxicity, cell-based; conditions: human, read-out: Ratio CC50/EC50
[9] = molecular target: Replicase polyprotein 1ab (Severe acute respiratory syndrome coronavirus 2) (UniProt P0DTD1); experiment: as §2, with “RNA level at 10 uM by measuring” for “RNA level by measuring”, “reporter assay relative to control” for “reporter assay”; format: cell-based
[10] = Cytotoxicity against Rhesus monkey LLC-MK2 cells incubated for 48 hrs by method; format: toxicity, cell-based, Macaca mulatta
[11] = molecular target: Replicase polyprotein 1ab (Severe acute respiratory syndrome coronavirus 2) (UniProt P0DTD1); experiment: as §1, with “RNA level at 10 uM by measuring” for “RNA level by measuring”, “reporter assay relative to control” for “reporter assay”; format: cell-based
[12] = Cytotoxicity against human HCT-8 cells incubated for 48 hrs by CCK8 method; format: toxicity, cell-based
Human coronavirus OC43 [13] = experiment: Antiviral activity against HCoV-OC43 infected in human HCT-8 cells at a MOI of 0.1 assessed as inhibition of viral replication measured after 5 days by MTS assay; format: functional, organism-based; conditions: Betacoronavirus 1, HCT-8, 120 h
Human coronavirus NL63 [14] = experiment: Antiviral activity against HCoV-NL63 infected in Rhesus monkey LLC-MK2 cells at a MOI of 0.01 assessed as inhibition of viral replication measured after 120 hrs by MTS assay; format: functional, organism-based; conditions: Human coronavirus NL63, LLC-MK2, 120 h
[15] = molecular target: T1, Replicase polyprotein 1ab; experiment: Binding affinity to SARS-CoV-2 nsp12 expressed in Escherichia coli BL21 (DE3) cells using biotinylated EZ-link NHS-LC-LC assessed as dissociation constant incubated for 180 sec by BLI assay
Human coronavirus NL63 [16] = experiment: Potency index, ratio of PAP EC50 to test compound EC50 for antiviral activity against HCoV-NL63 infected in Rhesus monkey LLC-MK2 cells assessed as reduction in viru-induced cytopathic effect measured after 120 hrs by MTS assay; format: functional
Human coronavirus OC43 [17] = experiment: Potency index, ratio of PAP EC50 to test compound EC50 for antiviral activity against HCoV-OC43 infected in human HCT-8 cells assessed as reduction in virus-induced cytopathic effect measured after 120 hrs by MTS assay; format: functional
[18] = molecular target: T1, Replicase polyprotein 1ab; experiment: Binding affinity to SARS-CoV-2 nsp12 expressed in Escherichia coli BL21 (DE3) cells using biotinylated EZ-link NHS-LC-LC assessed as dissociation constant at 6.25 to 100 uM incubated for 180 sec by BLI assay
Human coronavirus OC43 [19] = experiment: Antiviral activity against HCoV-OC43 infected in golden hamster BHK-21 cells assessed as inhibition of viral infection at 10 uM measured after 24 hrs by luciferase assay; format: functional, organism-based
Human coronavirus OC43 [20] = experiment: Antiviral activity against HCoV-OC43(Rluc) infected in golden hamster BHK-21 cells assessed as inhibition of viral replication at 10 uM pre-infected with virus for 1 hrs followed by compound addition and measured after 24 hrs by luciferase assay; format: functional, organism-based
Human coronavirus OC43 [21] = experiment: Antiviral activity against HCoV-OC43(Rluc) infected in BHK-21 cells assessed as inhibition of viral infection at 10 uM pre-infected with virus for 2 hrs followed by compound addition measured after 24 hrs by luciferase assay; format: functional, organism-based
SARS-CoV-2 = experiment: Antiviral activity against SARS-CoV-2 C-Tan-n-CoV Wuhan infected in African green monkey Vero E6 cells assessed as inhibition of viral replication incubated for 24 hrs by qRT-PCR analysis; format: functional, organism-based; conditions: Severe acute respiratory syndrome coronavirus 2, C-Tan-n-CoV Wuhan, Vero C1008, 24 h
[22] = molecular target: Replicase polyprotein 1ab (Severe acute respiratory syndrome coronavirus 2) (UniProt P0DTD1); experiment: Inhibition of SARS-CoV-2 3CLpro in HEK293T cells at 2 to 20 uM measured after 48 hrs by Western blot analysis; format: cell-based; conditions: dose 2-20 µM

| Structure (SMILES) | CC50 at 48 h [1] | inhibition [2] | EC50 [3] | also measured |
| --- | --- | --- | --- | --- |
| Nc1ccc(/N=N/c2ccc(F)cc2)c(N)n1 | > 100 µM | 64.9% | 8.73 µM |  |
| Nc1ccc(/N=N/c2ccccc2)c(NC(=O)[C@@H]2CCCN2)n1 | > 100 µM | 72.9% | 3.78 µM |  |
| CSCC[C@H](N)C(=O)Nc1nc(N)ccc1/N=N/c1ccccc1 | > 100 µM | 55.3% | 7.26 µM |  |
| Oc1ccc(/N=N/c2ccccc2)cc1 |  | 45.4% |  |  |
| CC(C)(C)OC(=O)N[C@@H](Cc1ccccc1)C(=O)Nc1nc(N)ccc1/N=N/c1ccccc1 | > 100 µM | 79.8% | 2.64 µM |  |
| Nc1ccc(/N=N/c2ccc([N+](=O)[O-])cc2)c(N)n1 |  | 45.8% |  |  |
| C[C@H](NC(=O)OC(C)(C)C)C(=O)Nc1nc(N)ccc1/N=N/c1ccccc1 | > 100 µM | 86% | 1.42 µM | EC50 [4]: 1.42 µM; inhibition [5]: Dose-dependent-effect; inhibition [6]: Dose-dependent-effect; EC50 [7]: 1.73 µM; selectivity ratio [8]: 70.4 |
| Cc1cc(N)nc(N)c1/N=N/c1ccccc1 |  | 49.9% |  |  |
| Nc1nc(N)c(/N=N/c2ccccc2)cc1Br | > 100 µM | 51.1% | 13.3 µM |  |
| Nc1cc(Br)c(/N=N/c2ccccc2)c(N)n1 |  | 41.9% |  |  |
| Nc1cc(-c2ccccc2)c(/N=N/c2ccccc2)c(N)n1 | > 100 µM | 65.6% | 8.26 µM |  |
| Nc1ccc(/N=N/c2ccccc2)c(NC(=O)[C@@H](N)Cc2ccccc2)n1 | > 100 µM | 56.7% | 8.77 µM |  |
| Nc1ccc(/N=N/c2ccc(C(F)(F)F)cc2)c(N)n1 | > 100 µM | 74.9% | 6.32 µM |  |
| C[C@H](N)C(=O)Nc1nc(N)ccc1/N=N/c1ccccc1 |  | 48.2% |  |  |
| CN(C)c1ccc(/N=N/c2ccc(N)nc2N)cc1 | > 100 µM | 50.1% | 9.52 µM |  |
| CCC(CC)COC(=O)[C@H](C)N[P@](=O)(OC[C@H]1O[C@@](C#N)(c2ccc3c(N)ncnn23)[C@H](O)[C@@H]1O)Oc1ccccc1 | > 100 µM |  |  | inhibition [9]: 80%; CC50 at 48 h [10]: > 100 µM; inhibition [11]: 80%; inhibition [5]: Dose-dependent-effect; inhibition [6]: Dose-dependent-effect; CC50 at 48 h [12]: > 100 µM; EC50 (Human coronavirus OC43 [13]): 1.89 µM; EC50 (Human coronavirus NL63 [14]): 2.67 µM |

| Structure (SMILES) | CC50 at 48 h [1] | inhibition [2] | EC50 [3] | also measured |
| --- | --- | --- | --- | --- |
| Cc1ccc(/N=N/c2ccc(N)nc2N)cc1 | > 100 µM | 59.1% | 8.59 µM |  |
| CC(C)(C)OC(=O)N1CCC[C@H]1C(=O)Nc1nc(N)ccc1/N=N/c1ccccc1 | > 100 µM | 88.5% | 1.11 µM | CC50 at 48 h [10]: > 100 µM; inhibition [11]: 90%; EC50 [4]: 1.11 µM; inhibition [5]: Dose-dependent-effect; inhibition [6]: Dose-dependent-effect; Kd [15]: Dose-dependent-effect; CC50 at 48 h [12]: > 100 µM; EC50 [7]: 1.36 µM; EC50 (Human coronavirus OC43 [13]): 1.43 µM; Ratio EC50 (Human coronavirus NL63 [16]): 1.85; Ratio EC50 (Human coronavirus OC43 [17]): 3.28; selectivity ratio [8]: 6.64; Kd [18]: 2.41 µM; EC50 (Human coronavirus NL63 [14]): 2.99 µM |
| Nc1ccc(/N=N/c2ccccc2)c(NC(=O)[C@@H](N)Cc2c[nH]c3ccccc23)n1 | 81.9 µM | 82.7% | 1.64 µM | EC50 [4]: 1.64 µM; inhibition [5]: Dose-dependent-effect; inhibition [6]: Dose-dependent-effect; EC50 [7]: 1.53 µM; selectivity ratio [8]: 50 |
| Cl.Nc1ccc(/N=N/c2ccccc2)c(N)n1 [PHENAZOPYRIDINE HYDROCHLORIDE] | > 100 µM | 50% | 7.37 µM | inhibition [9]: 90%; inhibition (Human coronavirus OC43 [19]): Active; CC50 at 48 h [10]: > 100 µM; EC50 [4]: 7.37 µM; inhibition [5]: Dose-dependent-effect; inhibition [6]: Dose-dependent-effect; Kd [15]: Dose-dependent-effect; CC50 at 48 h [12]: > 100 µM; EC50 [7]: 8.01 µM; inhibition (Human coronavirus OC43 [20]): Active; Minor Effects Was Observed; inhibition (Human coronavirus OC43 [21]): Active; EC50 (Human coronavirus OC43 [13]): 4.69 µM; EC50 (SARS-CoV-2): 5.37 µM; inhibition [22]: inactive; selectivity ratio [8]: > 13.6; Kd [18]: 5 µM; EC50 (Human coronavirus NL63 [14]): 5.52 µM |
| Nc1ccc(/N=N/c2ccc(OCc3ccccc3)cc2)c(N)n1 | > 100 µM | 65.3% | 7.16 µM |  |
| CC(C)(C)OC(=O)N[C@@H](Cc1c[nH]c2ccccc12)C(=O)Nc1nc(N)ccc1/N=N/c1ccccc1 | 79.2 µM | 79.8% | 3.79 µM |  |
| COc1ccc(/N=N/c2ccc(N)nc2N)cc1 |  | 48% |  |  |
| CSCC[C@H](NC(=O)OC(C)(C)C)C(=O)Nc1nc(N)ccc1/N=N/c1ccccc1 | > 100 µM | 83% | 1.33 µM | EC50 [4]: 1.33 µM; inhibition [5]: Dose-dependent-effect; inhibition [6]: Dose-dependent-effect; EC50 [7]: 1.38 µM; selectivity ratio [8]: 75.2 |
| NCC(=O)Nc1nc(N)ccc1/N=N/c1ccccc1 | > 100 µM | 52.4% | 9.28 µM |  |
| Nc1ccc(/N=N/c2cccc3c2CCCC3)c(N)n1 | 78.9 µM | 71.8% | 7.35 µM |  |
| Nc1nc(N)c(/N=N/c2ccccc2)cc1/N=N/c1ccccc1 |  | 46% |  |  |
| Nc1ccc(/N=N/c2ccc(Cl)cc2)c(N)n1 | > 100 µM | 64.5% | 7.64 µM |  |
| Nc1ccc(/N=N/c2ccc(Cc3ccccc3)cc2)c(N)n1 | > 100 µM | 59.3% | 6.47 µM |  |
| CC(C)(C)OC(=O)NCC(=O)Nc1nc(N)ccc1/N=N/c1ccccc1 | > 100 µM | 77.4% | 1.7 µM |  |
| Nc1ccc(/N=N/c2ccc(Br)cc2)c(N)n1 | > 100 µM | 71.8% | 8.61 µM |  |
